Measurements from PubChem BioAssay (NCI).
Where “and” joins values, the source holds several entries; their conditions need not be identical. Equal entries are not always repeated.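 Tested at 5 concentrations; 48 h exposure; 96-well plates; endpoints linearly interpolated, else capped at highest concentration. At the GI50, growth is halved. The concentration for full growth arrest is given as TGI.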

What was measured:
Assay in all cases: growth of human tumour cells (NCI), 48 h
HCT-15 colon = system: HCT-15 colon
LOX IMVI melanoma = system: LOX IMVI melanoma
OVCAR-5 ovarian = system: OVCAR-5 ovarian
PC-3 prostate = system: PC-3 prostate
RPMI-8226 leukemia = system: RPMI-8226 leukemia
SK-MEL-28 melanoma = system: SK-MEL-28 melanoma
SK-MEL-5 melanoma = system: SK-MEL-5 melanoma
SN12C renal = system: SN12C renal
TK-10 renal = system: TK-10 renal
U251 CNS = system: U251 CNS

Row | SMILES | GI50 (HCT-15 colon) | TGI (HCT-15 colon) | GI50 (LOX IMVI melanoma) | TGI (LOX IMVI melanoma) | GI50 (OVCAR-5 ovarian) | TGI (OVCAR-5 ovarian) | GI50 (PC-3 prostate) | TGI (PC-3 prostate) | GI50 (RPMI-8226 leukemia) | TGI (RPMI-8226 leukemia) | GI50 (SK-MEL-28 melanoma) | TGI (SK-MEL-28 melanoma) | GI50 (SK-MEL-5 melanoma) | TGI (SK-MEL-5 melanoma) | GI50 (SN12C renal) | TGI (SN12C renal) | GI50 (TK-10 renal) | TGI (TK-10 renal) | GI50 (U251 CNS) | TGI (U251 CNS)
1 | Fc1ccc(-c2c(-c3ccncc3)[nH]c3cccnc23)cc1 | 15.4 µM | > 25 µM | > 21.7 µM | > 25 µM | > 25 µM | > 25 µM | > 25 µM | > 25 µM | > 25 µM | > 25 µM | > 25 µM | > 25 µM | 24.3 µM | > 25 µM | 18.8 µM | > 25 µM | 3.02 µM | > 25 µM | > 25 µM | > 25 µM
2 | CCOC1Oc2ccccc2C(=O)/C1=C\Nc1ccc(C(=O)O)c(O)c1 (stereo unspecified) | 16.4 µM | 45.9 µM | 18.2 µM | 46.8 µM | 43.2 µM | > 100 µM | 39.2 µM | > 100 µM | 20 µM | > 100 µM | 23.9 µM | 65.9 µM | 18.6 µM | 37.4 µM | 16.5 µM | 36.7 µM | 22.8 µM | 61.3 µM | 19.1 µM | 46.5 µM
3 | Cc1c(C(=O)/C=C/c2ccc(Cl)cc2)nnn1-c1ccnc2c(C(F)(F)F)cccc12 | 54.6 µM | > 100 µM | 23.3 µM | > 100 µM | > 100 µM | > 100 µM | 26.1 µM | > 100 µM | 8.47 µM | > 100 µM | > 100 µM | > 100 µM | 53.5 µM | > 100 µM | 16.3 µM | > 100 µM | 34.9 µM | > 100 µM | 12.9 µM | 47.8 µM
4 | COc1ccc(C2CC(c3ccc4ccccc4c3)=NN2c2nc(O)c(C3=c4cc(Cl)ccc4=NC3=O)s2)cc1 (stereo unspecified) | 0.0342 µM | 0.229 µM | 0.0223 µM and < 0.005 µM |  | 0.0263 µM and < 0.005 µM |  | 0.0283 µM and < 0.005 µM |  | 0.0641 µM |  | 0.0258 µM and < 0.005 µM |  | 0.0175 µM and < 0.005 µM | 0.0337 µM and < 0.005 µM | 0.0264 µM and < 0.005 µM |  | 0.0195 µM and < 0.005 µM |  | 0.0199 µM and < 0.005 µM | 0.0414 µM and < 0.005 µM
5 | CN(CO)c1nc(N(C)CO)nc(N(C)CO)n1 | 25.8 µM | 65.5 µM and 37.1 µM | 16.2 µM | 36.6 µM and 26.8 µM |  | 63 µM and > 73.8 µM |  | 45.6 µM and 51.3 µM | 27.5 µM | > 91.4 µM and 43.4 µM | 18.3 µM | 36.7 µM and 28.4 µM | 18.1 µM | 32.2 µM and 33.8 µM | 27.6 µM and 19.5 µM | 70.5 µM and 57.8 µM |  | 82.9 µM and 77.4 µM | 29.6 µM | 72.8 µM and 46.2 µM
6 | O=c1[nH][nH]c(=O)c2c(O)c(-c3ccccc3)ncc12 | 57.5 µM and 185 µM | > 1000 µM | 38.9 µM and 123 µM | 442 µM | 60 µM and 160 µM | 832 µM | 44.5 µM and 143 µM | 662 µM | 79.2 µM and 283 µM | 706 µM | 31.9 µM and 40.4 µM | > 1000 µM | 45.8 µM and 175 µM | 357 µM | 62.6 µM and 160 µM | 623 µM | 57 µM and 153 µM | 462 µM | 31.4 µM and 48.8 µM | 79.8 µM and 405 µM
7 | CC[C@H](C)[C@H](NC(=O)[C@H]1CCCCN1C)C(=O)N(C)[C@H](C[C@@H](OC(C)=O)c1nc(C(=O)NC23C4C5C2C2C3C4C52C(=O)OC)cs1)C(C)C (stereo partly specified) | 0.00763 µM and 0.00302 µM | > 25 µM | 0.00108 µM and 0.0025 µM | > 25 µM | 0.0702 µM and 0.0707 µM | > 25 µM | 0.00263 µM and 0.0025 µM | > 25 µM | 0.00197 µM and 0.0025 µM | 7 µM | 3.12 µM | > 25 µM | 0.000838 µM and 0.0025 µM | 0.0241 µM and 0.0102 µM | 0.00199 µM and 0.0025 µM | 9.33 µM | 0.00424 µM |  | 0.00424 µM and 0.0025 µM | > 25 µM
8 | CN(C)c1ccc(/C=N/n2c(CCCCc3n[nH]c(=S)n3/N=C/c3ccc(N(C)C)cc3)n[nH]c2=S)cc1 | > 100 µM | > 100 µM | > 100 µM | > 100 µM | > 100 µM | > 100 µM | > 100 µM | > 100 µM | > 100 µM | > 100 µM | > 100 µM | > 100 µM | > 100 µM | > 100 µM | > 100 µM | > 100 µM | > 100 µM | > 100 µM | 74 µM | > 100 µM
9 | CCOC(=O)Nc1cc2c(c(N)n1)N=C(c1ccccc1)CN2 | < 0.0001 µM |  | < 0.0001 µM | 32.9 µM |  | 27.7 µM | < 0.0001 µM | < 0.0001 µM | < 0.0001 µM |  |  | 39.9 µM | < 0.0001 µM | < 0.0001 µM |  | 37.8 µM |  | > 60.7 µM |  | 1.42 µM
10 | CN1CCN(C(=O)[C@@]2(C)CC[C@]3(C)CC[C@]4(C)C(=CC[C@@H]5[C@@]6(C)CC[C@H](OC(=O)c7cccnc7)C(C)(C)[C@@H]6CC[C@]54C)[C@@H]3C2)CC1 | 1.4 µM | 2.8 µM | 1.65 µM | 3.06 µM | 1.69 µM | 3.42 µM | 1.61 µM | 3.54 µM | 1.87 µM | 5.81 µM | 1.79 µM | 3.34 µM | 1.65 µM | 3.02 µM | 1.56 µM | 3.15 µM | 1.79 µM | 3.31 µM | 1.57 µM | 2.95 µM
11 | O=C1NC(c2cccc3ccccc23)Nc2ccccc21 (stereo unspecified) |  | 2.28 µM and 2.17 µM | 0.0389 µM | > 96.7 µM |  | > 65.3 µM | 0.0263 µM | 0.213 µM |  | 0.493 µM and 1.05 µM |  | > 100 µM | 0.00988 µM |  | 0.0198 µM | > 100 µM | 0.0545 µM | > 68 µM | 0.0259 µM | 0.3 µM and 0.83 µM
12 | CC(C)c1ccc(C(O)(C(=O)O)c2ccc(C(C)C)cc2)cc1 |  | > 100 µM |  | > 100 µM |  | > 100 µM |  | 51.1 µM |  | 72 µM |  | > 100 µM |  | > 100 µM |  | > 100 µM |  | > 100 µM |  | 42.9 µM
13 | Cc1ccc2c(c1)C(=O)/C(=C/c1cccc(OCC(=O)c3ccc(Cl)cc3)c1)CS2 | 2.74 µM | 15.3 µM | 1.84 µM | 3.87 µM | 15.7 µM | 30 µM | 2.99 µM |  | 1.85 µM | 4.47 µM | 2.27 µM | 4.93 µM | 6.95 µM | 19.6 µM | 14.6 µM | 62.7 µM | 14.1 µM | 39.5 µM | 3.14 µM | 13.6 µM
